Results published in ChEMBL document CHEMBL2074480, “Characterization of tetrandrine, a potent inhibitor of P-glycoprotein-mediated multidrug resistance” (Cancer Chemother Pharmacol, 2004).

Target: ATP-dependent translocase ABCB1 (Homo sapiens, UniProt P08183)
Experiment: TP_TRANSPORTER: drug resistance (vincristine) in KBV200 cells
Assay type: functional, cell-based

ATP-dependent translocase ABCB1, sequence (P08183 whole entry): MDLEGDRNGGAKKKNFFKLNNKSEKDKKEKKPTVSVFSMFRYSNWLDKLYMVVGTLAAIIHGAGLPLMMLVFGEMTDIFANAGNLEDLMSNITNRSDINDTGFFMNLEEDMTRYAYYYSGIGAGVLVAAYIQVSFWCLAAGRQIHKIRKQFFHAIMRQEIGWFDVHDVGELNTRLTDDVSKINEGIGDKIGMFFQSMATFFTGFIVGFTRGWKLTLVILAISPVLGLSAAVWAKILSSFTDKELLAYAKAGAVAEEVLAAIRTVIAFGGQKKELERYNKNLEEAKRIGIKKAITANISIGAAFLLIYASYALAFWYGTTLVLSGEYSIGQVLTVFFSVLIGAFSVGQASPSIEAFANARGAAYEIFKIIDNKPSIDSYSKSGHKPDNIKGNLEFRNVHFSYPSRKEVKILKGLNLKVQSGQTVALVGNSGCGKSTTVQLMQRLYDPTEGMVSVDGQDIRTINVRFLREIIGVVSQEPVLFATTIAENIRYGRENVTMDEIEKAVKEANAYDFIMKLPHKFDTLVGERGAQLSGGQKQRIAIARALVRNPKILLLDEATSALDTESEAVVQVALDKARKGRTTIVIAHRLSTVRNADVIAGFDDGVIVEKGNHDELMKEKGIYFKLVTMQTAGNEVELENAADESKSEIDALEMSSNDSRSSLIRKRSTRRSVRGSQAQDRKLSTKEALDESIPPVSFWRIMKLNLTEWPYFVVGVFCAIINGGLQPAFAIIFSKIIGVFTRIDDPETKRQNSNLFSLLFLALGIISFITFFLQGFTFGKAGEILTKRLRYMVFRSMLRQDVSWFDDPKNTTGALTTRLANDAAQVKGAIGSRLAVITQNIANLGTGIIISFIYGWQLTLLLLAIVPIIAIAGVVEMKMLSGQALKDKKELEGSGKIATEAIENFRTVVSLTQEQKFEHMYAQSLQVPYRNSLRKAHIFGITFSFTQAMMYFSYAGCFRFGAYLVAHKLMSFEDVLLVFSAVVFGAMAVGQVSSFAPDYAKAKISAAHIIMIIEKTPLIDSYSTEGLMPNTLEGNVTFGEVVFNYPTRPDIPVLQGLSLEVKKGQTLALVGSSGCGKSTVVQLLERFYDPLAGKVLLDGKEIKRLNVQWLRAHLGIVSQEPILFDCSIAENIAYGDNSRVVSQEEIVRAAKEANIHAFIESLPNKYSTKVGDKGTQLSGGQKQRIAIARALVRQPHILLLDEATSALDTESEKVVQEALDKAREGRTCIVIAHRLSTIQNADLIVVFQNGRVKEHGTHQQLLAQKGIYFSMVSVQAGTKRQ

SMILES: COc1ccc2cc1Oc1ccc(cc1)C[C@H]1c3cc(c(OC)cc3CCN1C)Oc1c(OC)c(OC)cc3c1[C@H](C2)N(C)CC3 [FANCHININ]
- Activity: inhibitor [+]
